The values below come from patent US4110536A, “Derivatives of 5-(indol-3-yl)hydantoin” (Miles Laboratories, Inc., priority 1977, dated 1978).

For data set [1] the following is noted: cited from earlier work.
Data set [2] is described as follows: in vivo. The note with it: mouse, ip.
Procedure: (§1) LD50 data were obtained by standard procedures known to the art.
(§2) In order to obtain an indication of the specificity and/or safety margin of the antiarrhythmic effect, the acute toxicity of the compounds was investigated. This was carried out by administering log-spaced intraperitoneal doses of the test compounds to groups of five mice.
The test system of data set [3] is chloroform-induced arrhythmias. To be noted: mouse, in vivo, ip, 10 min.
Procedure: The antiarrhythmic activity of the compounds listed above were tested in the experimental model reported by J. W. Lawson (J. Pharmacol. Exp. Therap., 160: 22-31 (1968).
The test compounds were administered in varying intraperitoneal doses to groups consisting of 5 mice. Ten minutes after administration of a given dose of a compound, a mouse was transferred to a covered 300 ml glass beaker that contained a wad of cotton saturated with about 20 ml of chloroform. The animal was observed closely and removed from the beaker immediately after respiratory arrest. The heart was quickly exposed by making an incision through the abdomen, diaphragm, thorax and pericardium for visual inspection of ventricular rate and rhythm. Ventricular contractions were counted for 30 seconds. According to the procedure reported by Lawson, animals with ventricular rate not exceeding 100 contractions during the 30 second observation period were considered protected.
The subject of data set [4] is ventricular arrhythmias induced by digitalis. To be noted: prior-art background; cited from earlier work.
Data set [5] relates to mice.
Procedure: as §1, §2

Like-named read-outs stand apart in the source and are kept apart here.

As for `C=C[C@H]1C[N@@]2CC[C@H]1C[C@@H]2[C@@H](O)c1ccnc2ccc(OC)cc12` [Quinidine], the “side effects / toxicity” value in data set [1] (prior-art background) is recorded as “relatively toxic”.
With `O=C1NC(Cc2c[nH]c3ccccc23)C(=O)N1CCCN1CCC(O)(c2ccccc2)CC1` (stereo not shown) [Example 13, 3-[3-(4-Hydroxy-4-phenylpiperid-1-yl)propyl]-5-[(indol-3-yl)methyl]hydantoi], in data set [2], the LD50 at 48 h worked out at 57 mg/kg and the selectivity ratio was 2.5. The ED50 in data set [3] turned out to be 23 mg/kg.
For `O=C1NC(=O)C(c2ccccc2)(c2ccccc2)N1` [III, 5,5-diphenyl-2,4-imidazolidinedione], in data set [4], the “antiarrhythmic effects” value was “specifically antagonizes ventricular arrhythmias induced by digitalis, depresses ventricular automaticity, enhances atrio-ventricular nodal conduction, and reduces the effective refractory period”. The 50% effect level in data set [3] (ED50) was put at a dose of 123 mg/kg. In addition, the “side effects / toxicity” value in data set [1] (in vivo) is “dizziness, nausea, emesis, nystigmus, and ataxia”; in data set [1] (prior-art background, listed as DPH), “toxic and may produce atrio-ventricular blockage, bradycardia, or even cardiac arrest”.
For `O=C1NC(Cc2c[nH]c3ccccc23)C(=O)N1CCCN1CCC(c2ccccc2)CC1` (stereo not shown) [Example 9, 5-(Indol-3-ylmethyl)-3-[3-(4-phenyl-1-piperidyl)propyl]hydantoin], in data set [2], the LD50 at 48 h was 19 mg/kg and the selectivity ratio turned out to be 2.5. In data set [3], this compound gave an ED50 of 7.5 mg/kg.
In the same order, the values of `CCN(CC)CCCN1C(=O)NC(c2c[nH]c3ccccc23)C1=O` (stereo not shown) [Example 15, 3-(3-Diethylaminopropyl)-5-(indol-3-yl)hydantoin] are 79 mg/kg, 1.8 and 44 mg/kg.
Consider `COc1ccc2[nH]cc(CC3NC(=O)N(CCCN4CCC(c5ccccc5)CC4)C3=O)c2c1` (stereo not shown) [Example 21, 5-(5-Methoxyindol-3-ylmethyl)-3-[3-(4-phenylpiperid-1-yl)propyl]hydantoin], for which, in data set [2], the LD50 at 48 h worked out at 24 mg/kg and the selectivity ratio was determined as 2.7. In data set [3], the 50% effect level (ED50) was put at a dose of 9 mg/kg.
In the same order, the values of `O=C1NC(Cc2c[nH]c3ccccc23)C(=O)N1CCCN1CCCCC1` (stereo not shown) [Example 20, 5-(Indol-3-ylmethyl)-3-(3-piperidylpropyl)hydantoin] are 190 mg/kg, 8 and 23.8 mg/kg.
`CCN(CC)CCCN1C(=O)NC(c2ccccc2)(c2c[nH]c3ccccc23)C1=O` (stereo not shown) [Example 14, 3-(3-Diethylaminopropyl)-5-(indol-3-yl)-5-phenylhydantoin]: in data set [2], the LD50 at 48 h is 48 mg/kg and the selectivity ratio came to 1.8. Further, in data set [3], the ED50 is 27 mg/kg.
For “5-[(indol-3-yl)methyl]hydantoin [V (R=II)]”, the ED50 in data set [3] was found to be 72 mg/kg. For the same compound, the “Therapeutic Index” value in data set [5] (LD50/ED50, mouse, i.p.) is given as 4.3. Also, the LD50 in data set [5] (mouse, in vivo, ip, 2880 min) is 307 mg/kg.
For the compound `C[N+]1(CCCN2C(=O)NC(Cc3c[nH]c4ccccc34)C2=O)CCC(c2ccccc2)CC1` (stereo not shown) [Example 10, 5-(Indol-3-ylmethyl)-3-[3-(4-phenyl-1-piperidyl)propyl]hydantoin methiodide], in data set [2], the LD50 at 48 h is 69 mg/kg and the selectivity ratio was found to be 3.5. The 50% effect level in data set [3] (ED50) was put at a dose of 19.6 mg/kg.
In the same order, the values of `CCN(CC)CCCN1C(=O)NC(Cc2c[nH]c3ccc(Cl)cc23)C1=O` (stereo not shown) [Example 17, 5-(5-Chloroindol-3-ylmethyl)-3-(diethylaminopropyl)hydantoin] are 74 mg/kg, 1.7 and 44 mg/kg.
For the compound `CCN(CC)CCCN1C(=O)NC(Cc2c[nH]c3ccc(OC)cc23)C1=O` (stereo not shown) [Example 18, 3-(3-Diethylaminopropyl)-5-(5-methoxyindol-3-ylmethyl)hydantoin], in data set [2], the LD50 at 48 h turned out to be 61 mg/kg and the selectivity ratio turned out to be 4.7. Also, in data set [3], the ED50 is 13 mg/kg.
On to `O=C1NC(Cc2c[nH]c3ccc(Cl)cc23)C(=O)N1CCCN1CCC(c2ccccc2)CC1` (stereo not shown) [Example 11, 5-(5-Chloroindol-3-ylmethyl)-3-[3-(4-phenyl-1-piperidyl)propyl]hydantoin], for which, in data set [2], the LD50 at 48 h worked out at 69 mg/kg and the selectivity ratio worked out at 1.9. Also, the 50% effect level in data set [3] (ED50) was put at a dose of 37 mg/kg.
Turning to `O=C1NC(c2c[nH]c3ccccc23)C(=O)N1CCCN1CCCCC1` (stereo not shown) [Example 6, 5-(Indol-3-yl)-3-[3-(piperid-1-yl)propyl]hydantoin], in data set [2], the LD50 at 48 h stood at 66 mg/kg and the selectivity ratio was 3.1.
On to `O=C1NC(c2ccccc2)(c2c[nH]c3ccccc23)C(=O)N1CCCN1CCC(c2ccccc2)CC1` (stereo not shown) [Example 12, 5-(Indol-3-yl)-5-phenyl-3-[3-(4-phenyl-1-piperidyl)propyl]hydantoin], for which, in data set [2], the LD50 at 48 h was 63 mg/kg and the selectivity ratio was 0.9. In data set [3], it took a dose of 80 mg/kg to reach the 50% effect level (ED50).
